For three compounds, IC50 results are on record in BindingDB's records for doi:10.1016/j.ejmech.2008.07.020 (Jadavpur University, 2009).

This assay addresses Reverse transcriptase/RNaseH (Human immunodeficiency virus 1, UniProt Q72547). Kind of assay: Inhibition of HIV1 reverse transcriptase.
On to `C[C@H]1Cn2c(=O)[nH]c3ccc(N)c(c32)CN1CC1CC1`, for which the 50% inhibitory concentration (IC50) (usually the point on the concentration scale where inhibition reaches its midpoint) turned out to be 849 µM. The compound `CCCC1CN(CCC)Cc2cccc3[nH]c(=O)n1c23` (stereo not drawn) yielded a concentration for half-maximal inhibition (IC50) of 182 µM. As for `CCCCN1Cc2cccc3[nH]c(=O)n(c23)C[C@@H]1C`, the figure is 100 µM.
